As usually defined, the Ki is a dissociation constant, usually derived from enzyme kinetics or from competition with a known ligand.

SMILES strings stand for the structures.

The experiment has as its target tryptase. Briefly: In vitro tryptase inhibition assay. Format: biochemical, human. To be noted: tosyl-Gly-Pro-Lys-p-nitroanilide 0.5 mM; 1 h preincubation at room temperature; pH 8.2. The method, then:
The compounds to be assayed (approximately 1 mg) were dissolved in 200 μL dimethylsulfoxide (DMSO) and diluted 1:10 into buffer containing 50 millimolar (mM) Tris-HCl (pH 8.2), 100 mM sodium chloride, and 0.05% polyoxyethylenesorbitan monolaurate (Tween-20°, available from Sigma, St. Louis, Mo.). Seven additional threefold dilutions were made from the initial dilution into the same buffer supplemented with 10% DMSO. Aliquots (50 microliters, μL) from each of the eight dilutions in the series were transferred to individual wells in a 96-well U-bottom microtiter plate. […] The tryptase solution was prepared by placing 60 μg/mL of tryptase into solution with 10 mM MES (2-[N-Morpholino]ethane sulfonic acid) containing 2 mM CaCl2, 20% glycerol and 50 μg/mL heparin. The enzyme reaction was initiated with the addition of the synthetic tripeptide substrate, tosyl-Gly-Pro-Lys-p-nitroanilide (available from Sigma, 25 μL; 0.5 mM final concentration). […] Initial velocity measurements calculated from the progress curves by a kinetic analysis program (BatchKi; Petr Kuzmic, University of Wisconsin, Madison, Wis.) were used to determine apparent inhibition constants for each inhibitor.
As for `NCc1ccc(CNC(=O)CNC(=O)OCc2ccc(COC(=O)NCC(=O)NCc3ccc(CN)cc3)cc2)cc1` [Example 1, Bis(p-xylylenediamineglycine)-1,4-benzenedimethanol dicarbamate], the affinity corresponds to a Ki of 0.00056 µM.
With `N=C(N)Nc1ccc(CNC(=O)CCNC(=O)OCc2ccc(COC(=O)NCCC(=O)NCc3ccc(NC(=N)N)cc3)cc2)cc1` [Example 3] the figure was 0.009 µM; with `N=C(N)Nc1ccc(CNC(=O)[C@@H]2CCCN2C(=O)OCc2ccc(COC(=O)N3CCC[C@H]3C(=O)NCc3ccc(NC(=N)N)cc3)cc2)cc1` [Example 4, Bis((4-quanidylbenzyl)-L-prolineamide-N^α -carbonyl)-1,4-dimethanolbenzene], 4 µM; with `C[C@H](NC(=O)OCc1ccc(COC(=O)N[C@@H](C)C(=O)NCc2ccc(NC(=N)N)cc2)cc1)C(=O)NCc1ccc(NC(=N)N)cc1` [Example 5, Bis((4-guanidylbenzyl)-L-alanineamide-N^α -carbonyl)-1,4-dimethanolbenzene], 0.289 µM.
Regarding `C[C@@H](NC(=O)OCc1ccc(COC(=O)N[C@H](C)C(=O)NCc2ccc(NC(=N)N)cc2)cc1)C(=O)NCc1ccc(NC(=N)N)cc1` [Example 6], the affinity, expressed as Ki, was 0.364 µM.
`N=C(N)Nc1ccc(CNC(=O)[C@H](Cc2ccccc2)NC(=O)OCc2ccc(COC(=O)N[C@@H](Cc3ccccc3)C(=O)NCc3ccc(NC(=N)N)cc3)cc2)cc1` [Example 7] showed a Ki of 0.227 µM.
With `NCc1ccc(CNC(=O)CC(=O)NCc2ccc(CNC(=O)CC(=O)NCc3ccc(CN)cc3)cc2)cc1` [Example 9, N,N'-Bis(N-(4-aminomethylbenzl)-malonamido)-p-xylylene diamide] the figure was 0.15 µM; with `NCc1ccc(CNC(=O)CCCC(=O)NCc2ccc(CNC(=O)CCCC(=O)NCc3ccc(CN)cc3)cc2)cc1` [Example 10], 0.0088 µM; with `NCc1cccc(CNC(=O)CCC(=O)NCc2cccc(CNC(=O)CCC(=O)NCc3cccc(CN)c3)c2)c1` [Example 11, N,N'-Bis(N-(3-aminomethylbenzyl)succinamido)-m-xylylene diamide], 0.127 µM.
On to `NCc1ccc(C(=O)NCCCC(=O)NCc2ccc(CNC(=O)CCCNC(=O)c3ccc(CN)cc3)cc2)cc1` [Example 12, N,N'-Bis(N-(4-aminomethylbenzamido)-4-aminobutyric)-p-xylylene diamide], for which affinity was put at a Ki of 0.086 µM.
Regarding `C[C@H](NC(=O)OCc1ccc(COC(=O)N[C@@H](C)C(=O)NCc2ccc(CN)cc2)cc1)C(=O)NCc1ccc(CN)cc1` [Example 13, Bis(p-xylylenediamine-L-alanine)-1,4-benzenedimethanol dicarbamate], affinity was put at a Ki of 0.031 µM.
The molecule `C[C@@H](NC(=O)OCc1ccc(COC(=O)N[C@H](C)C(=O)NCc2ccc(CN)cc2)cc1)C(=O)NCc1ccc(CN)cc1` [Example 14, Bis(p-xylylenediamine-D-alanine)-1,4-benzenedimethanol dicarbamate] had a Ki of 0.366 µM.
In the case of `NCc1ccc(CNC(=O)CCCNC(=O)c2ccc(C(=O)NCCCC(=O)NCc3ccc(CN)cc3)cc2)cc1` [Example 15, N,N'-Bis(N-(4-aminomethylbenzyl)butyramido)terephthalamide] it was 0.011 µM.
As for `NCc1ccc(C(=O)NCCNC(=O)OCc2ccc(COC(=O)NCCNC(=O)c3ccc(CN)cc3)cc2)cc1` [Example 16, N,N'-Bis(4-aminomethylbenzamidoethylene)-1,4-benzenedimethanol dicarbamate], the affinity corresponds to a Ki of 0.396 µM.
With `CN(Cc1ccc(CN(C)C(=O)CCCC(=O)NCc2ccc(CN)cc2)cc1)C(=O)CCCC(=O)NCc1ccc(CN)cc1` [Example 17, N,N'-Bis(N-(4-aminomethylbenzyl)glutaramido)-N,N'-bis(methyl)-p-xylylene diamide] the figure was 0.014 µM; with `CN(CC(=O)NCc1ccc(CN)cc1)C(=O)OCc1ccc(COC(=O)N(C)CC(=O)NCc2ccc(CN)cc2)cc1` [Example 18, Bis(p-xylylenediaminesarcosine)-1,4-benzenedimethanol dicarbamate], 0.005 µM; with `NCc1ccc(C(=O)NCCCNC(=O)OCc2ccc(COC(=O)NCCCNC(=O)c3ccc(CN)cc3)cc2)cc1` [Example 19, N,N'-Bis(4-aminomethylbenzamidopropylene)-1,4-benzenedimethanol dicarbamate], 0.005 µM.
As for `CN(CCCC(=O)NCc1ccc(CN)cc1)C(=O)c1ccc(C(=O)N(C)CCCC(=O)NCc2ccc(CN)cc2)cc1` [Example 20, N,N'-Bis(N-[4-aminomethylbenzyl)butyramido)-N,N'-bis(methyl)terephthalamide], affinity was put at a Ki of 0.107 µM.
The molecule `NC[C@H]1CC[C@H](C(=O)NCCCNC(=O)OCc2ccc(COC(=O)NCCCNC(=O)[C@H]3CC[C@H](CN)CC3)cc2)CC1` [Example 22, N,N'-Bis(trans-4-aminomethylcyclohexyl-1-amido-propylene)-1,4-benzenedimethanol dicarbamate] came in with a Ki of 0.918 µM.
`CN(Cc1ccc(CN(C)C(=O)CCC(=O)NCc2ccc(CN)cc2)cc1)C(=O)CCC(=O)NCc1ccc(CN)cc1` [Example 23] returned an inhibitory constant (Ki) of 0.005 µM.
With `NCC1CCC(CNC(=O)CCCC(=O)NCc2ccc(CNC(=O)CCCC(=O)NCC3CCC(CN)CC3)cc2)CC1` (stereo not drawn) [Example 24, N,N'-Bis(N-(4-aminomethylcyclohexylmethyl)-glutaramido)-p-xylylene diamide] the figure was 0.055 µM; with `CN(Cc1ccc(CN(C)C(=O)CCC(=O)NCC2CCC(CN)CC2)cc1)C(=O)CCC(=O)NCC1CCC(CN)CC1` (stereo not drawn) [Example 25, N,N'-Bis(methyl)-bis(N-(4-aminomethylcyclohexylmethyl)succinamido)-p-xylylene diamide], 0.118 µM; with `NCC1CCC(CNC(=O)CCC(=O)NCc2ccc(CNC(=O)CCC(=O)NCC3CCC(CN)CC3)cc2)CC1` (stereo not drawn) [Example 26, N,N'-Bis(N-(4-aminomethylcyclohexylmethyl)-succinamido)-p-xylylene diamide], 0.123 µM.
`CN(Cc1ccc(CN(C)C(=O)CCCC(=O)NCC2CCC(CN)CC2)cc1)C(=O)CCCC(=O)NCC1CCC(CN)CC1` (stereo not drawn) [Example 27, N,N'-Bis(methyl)-bis(N-(4-aminomethylcyclohexylmethyl)-glutaramido)-p-xylylene didmine] registered a Ki of 0.138 µM.
In the case of `CC1(C)O[C@@H](C(=O)NCc2ccc(CN)cc2)[C@H](C(=O)NCc2ccc(CNC(=O)[C@@H]3OC(C)(C)O[C@H]3C(=O)NCc3ccc(CN)cc3)cc2)O1` [Example 28, N,N'-Bis(N-(4-aminomethylbenzyl)-dimethyl-2,3-isopropylidenetartaramido)-p-xylylene diamide] it was 0.643 µM.
With `NCC1CCCC(CNC(=O)CCC(=O)NCc2ccc(CNC(=O)CCC(=O)NCC3CCCC(CN)C3)cc2)C1` (stereo not drawn) [Example 29, N,N'-Bis(N-(3-aminomethylcyclohexylmethyl)-succinamido)-p-xylylene diamide] the figure was 1.1 µM; with `CN(Cc1ccc(CN)cc1)C(=O)CCC(=O)NCc1ccc(CNC(=O)CCC(=O)N(C)Cc2ccc(CN)cc2)cc1` [Example 30, N,N,-Bis(N-methyl-N-(4-aminomethylbenzyl)-succinamido)-p-xylylene diamide], 2.3 µM; with `NCC1CCC(CNC(=O)CNC(=O)OCc2ccc(COC(=O)NCC(=O)NCC3CCC(CN)CC3)cc2)CC1` (stereo not drawn) [Example 31, Bis(1,4-cyclohexyldimethylamineglycine)-1,4-benzenedimethanol dicarbamate], 0.012 µM.
With `CN(Cc1ccc(CN)cc1)C(=O)CNC(=O)OCc1ccc(COC(=O)NCC(=O)N(C)Cc2ccc(CN)cc2)cc1` [Example 32] the figure was 0.874 µM.
Molecule `NC[C@H]1CC[C@H](C(=O)NCCCCNC(=O)OCc2ccc(COC(=O)NCCCCNC(=O)[C@H]3CC[C@H](CN)CC3)cc2)CC1` [Example 33, N,N'-Bis(trans-4-aminomethyl-cyclohexyl-1-amidobutyl)-1,4-benzene dimethanol dicarbamate] gave a Ki of 0.048 µM.
`NCc1ccc(C(=O)NCCCCNC(=O)c2ccc(C(=O)NCCCCNC(=O)c3ccc(CN)cc3)cc2)cc1` [Example 34, N,N'-Bis[4-(aminomethylbenzamido)butyl]-terephthalyldiamide] displayed an inhibition constant (Ki) of 0.222 µM.
Molecule `NCc1ccc(CNC(=O)CCC(=O)NCc2ccc(CNC(=O)CCC(=O)NCc3cccc(CN)c3)cc2)cc1` [Example 35, N-(3-Aminomethylbenzylsuccinamido)-N'-(4-aminomethyl-benzylsuccinamido)-p-xylylene diamide] came in with a Ki of 0.019 µM.
Take `N=C(N)Nc1ccc(CNC(=O)CC(=O)NCc2ccc(CNC(=O)CC(=O)NCc3ccc(NC(=N)N)cc3)cc2)cc1` [Example 36, N,N'-Bis(N-(4-Guanidylbenzylamine)-malonamido)-p-xylylene diamide]: affinity was put at a Ki of 0.682 µM.
Molecule `N=C(N)Nc1ccc(CNC(=O)CCC(=O)NCc2ccc(CNC(=O)CCC(=O)NCc3ccc(NC(=N)N)cc3)cc2)cc1` [Example 37] yielded a Ki of 0.04 µM.
In turn, `N=C(N)Nc1ccc(CNC(=O)CCCC(=O)NCc2ccc(CNC(=O)CCCC(=O)NCc3ccc(NC(=N)N)cc3)cc2)cc1` [Example 38] registered a Ki of 0.1 µM.
In the case of `NCc1ccc(CNC(=O)CCC(=O)Nc2ccc(NC(=O)CCC(=O)NCc3ccc(CN)cc3)cc2)cc1` [Example 39, N,N'-Bis((N-(4-aminomethylbenzyl)succinamido))-p-phenethylenediamide] it was 0.006 µM.

(Values after patent publication US5656660A, “Compositions and methods for treating mast-cell mediated conditions” (Arris Pharmaceutical Corporation, priority 1995, dated 1997).)
